Source: patent publication US20140243403A1, “TREATING COLORECTAL, PANCREATIC, AND LUNG CANCER” (The General Hospital Corporation, priority 2011, published 2014)

Assays:
MCF10A = experiment: Sensitivity of non-transformed epithelial cell line; format: cell-based
Protocol: (§1) (A) 5Z-7-oxozeaenol IC50 values for colorectal cancer cell lines of various genotypes as well as 2 “normal” epithelial cell lines, MCF10A and MDCK (light gray bars). Data are represented as the mean of 3 independent experiments+/−SEM.
(§2) To determine if sensitivity to TAK1 inhibition is specific to colon cancer-derived cell lines, sensitivity to 5Z-7-oxozeaenol was assessed in 5 KRAS mutant pancreatic ductal adenocarcinoma (PDAC) and 4 non-small cell lung cancer (NSCLC) cells, all of which are APC wild-type (FIG. 9B).

MDCK = experiment: as above; format: cell-based
Protocol: as §1, §2

[1] = system: KRAS mutant pancreatic ductal adenocarcinoma (PDAC) cells; experiment: Sensitivity of KRAS mutant PDAC cell lines; format: cell-based; details: 5 KRAS mutant PDAC cell lines, APC wild-type
Protocol: (§3) (B) 5Z-7-oxozeaenol IC50 values for KRAS mutant PDAC and NSCLC cell lines.
as §2

[2] = system: non-small cell lung cancer (NSCLC) cells; experiment: Sensitivity of KRAS mutant NSCLC cell lines; format: cell-based; details: 4 NSCLC cell lines, APC wild-type
Protocol: as §3, §2

[3] = system: TOP-FLASH TCF4-responsive luciferase reporter; experiment: TOP-FLASH TCF4 luciferase reporter in colon cancer cell lines; format: cell-based, human
From the text: (B) TOP-FLASH activity in KRAS-independent and KRAS-dependent cell lines following TAK1 inhibition with indicated concentrations (μM). Data are represented as means of triplicate experiments±SEM.
Since Wnt pathway enrichment was found in KRAS-dependent cells (FIG. 8C), the TAK1 dependency signature was overlapped with a dataset of binding sites for the Wnt-regulated transcription factor TCF4, derived from ChIP-on-Chip analyses (Hatzis et al., 2008). Of the 32 TAK1 dependency genes, 18 contained proximal TCF4 binding sites. A number of these genes, such as BAMBI, PROX1 and NAV2 (HELAD1) have been previously linked to colon tumorigenesis in the context of deregulated Wnt signaling (Lin et al., 2008; Petrova et al., 2008; Sekiya et al., 2004). Basal Wnt signaling activity was measured by TOP-FLASH TCF4-responsive luciferase assays. Cells were plated in 12-well tissue culture plates at a density of 5×10^4 cells/ml and 1 ml per well. Cells were then co-transfected with either 0.5 μg FOP-FLASH or TOP-FLASH plasmids plus 50 ng of pRL-TK (expressing Renilla luciferase). […]
To explore the role of KRAS and TAK1 in modulating Wnt signaling, the effect of KRAS depletion on β-catenin/TCF transcription was first assessed in a panel of KRAS mutant cell lines using the TOP-FLASH reporter (FIGS. 5A and 11A). […]

Wnt target gene Axin 2 = experiment: Axin 2 protein expression, western blot; format: cell-based, human
Protocol: (C) Protein expression levels of the Wnt target gene Axin 2 following treatment of cells with the indicated concentrations. GAPDH serves as a loading control.
In contrast, KRAS depletion had no effect in one KRAS-independent line (SW1463) and increased TOP-FLASH activity in another (LS174T). […] To define the effect of TAK1 signaling on a physiological Wnt target gene, protein expression levels of the endogenous Axin 2 gene (Lustig et al., 2002) were measured following treatment with 5Z-7-oxozeaenol. […] Thus, both KRAS and TAK1 suppression selectively suppress β-catenin-mediated transcription and Wnt target gene expression in KRAS-dependent cells.
The following antibodies were used for western blotting in the above examples: KRAS OP-24, Pan-Ras OP-40 (Calbiochem); PARP (BD Pharmigen, 4C10-5); BMP-7 (Abcam); phospho-ERK, Axin2, phospho Smad1 and total Smad1/5/8, phospho- and total AMPK, phospho- and total AKT, cleaved Caspase-3 (Cell Signaling); GAPDH (Chemicon); E-Cadherin, beta-catenin (BD Pharmigen) Syk, TAK1, total ERK1 (Santa Cruz). For secreted BMP-7 levels, 1×10^6 HT29 cells stably expressing ER-KRAS(12V) were plated in 10 cm dishes. 24 h post-plating, 10 ml serum-free DME/F12 medium (Gibco) was added. Conditioned media was collected 24 h post-induction of ER-KRAS(12V) with 4-HT and concentrated to […], using AMICON® Ultra-4 Centrifugal Filter Units with 3 kDa membranes. […]

[4] = system: HT29 cells expressing mutant KRAS (G12V) 4A or 4B; experiment: Sensitivity of HT29 cells expressing mutant KRAS (G12V); format: cell-based, human; details: HT29 cells expressing 4A or 4B splice isoform of mutant KRAS (G12V)
From the text: (§4) (D) Forced overexpression of epitope-tagged oncogenic G12V mutated RAS protein isoforms in HT29 cells and sensitivity to TAK1 pharmacological inhibition with 5Z-7-oxozeaenol. Expression levels of exogenous and endogenous Ras proteins are shown by immunoblotting with a pan-ras monoclonal antibody. NRAS/KRAS4B are HA-tagged and KRAS4A is V5-tagged.
(§5) These cell lines are insensitive to 5Z-7-oxozeaenol.

[5] = system: HT29 cells expressing mutant NRAS; experiment: Sensitivity of HT29 cells expressing mutant NRAS; format: cell-based, human; details: HT29 cells with ectopic mutant NRAS
From the text: as §4, §5

## COc1cc(O)c2c(c1)/C=C/C[C@H](O)[C@H](O)C(=O)/C=C\C[C@H](C)OC2=O [5Z-7-oxozeaenol]
MCF10A
  IC50: 5.5 µM
MDCK
  IC50: 22 µM
[1]
  sensitivity to 5Z-7-oxozeaenol: largely refractory
[2]
  sensitivity to 5Z-7-oxozeaenol: largely refractory
[3]; KRAS-independent cells, 24 h treatment, read-out: IC50 for effect on TOP-FLASH activity
  IC50: > 10 µM
[3]; SW837 cells, increased at low doses, reduced at 5 μM
  TOP-FLASH activity response: biphasic response
Wnt target gene Axin 2; KRAS-dependent cells
  Axin 2 expression: dose-dependent reduction
Wnt target gene Axin 2; KRAS-independent cells
  Axin 2 expression, dose-dependent reduction: not
[4]
  reduction in the IC50 for 5Z-7-oxozeaenol: 3 fold
[5]
  change in sensitivity to 5Z-7-oxozeaenol: slightly increased resistance
